In the data set the test system is GH3-TRE-Luc cell line. Particulars: read-out: AC50 (uM) modified / 1000, viability, 1 nM T3 present, 24 h.

Structures are written as SMILES. Structures can show the parent of a compound that is named as a salt. Where two headings read alike, the source gives them in different places. Starred links: 1 amine or outer side, 2 acyl side, 3 side chain; linkers in the order of their positions; H or OH if unused. Positions of bridges follow the written chain, without caps; N, C: chain ends. Non-standard residues stand in square brackets, D forms with d. Residues, ends and D or L forms follow the SMILES beside them. Chains are numbered I, II in the order given. Actinocin(9to1) = Cc1c2oc3c(C)ccc(C(=O)[*:1])c3nc-2c(C(=O)[*:2])c(N)c1=O; NMeV = CN[C@H](C(=O)O)C(C)C; Sar = CNCC(=O)O

On to `CCC(C)(C)C(=O)O[C@H]1C[C@@H](C)C=C2C=C[C@H](C)[C@H](CC[C@@H]3C[C@@H](O)CC(=O)O3)[C@H]21` [Simvastatin], for which the CC50 (Tox21_110001=Tox21_300400) stood at 72.4 µM.

In the case of `CC(=O)N1CCN(c2ccc(OC[C@@H]3CO[C@@](Cn4ccnc4)(c4ccc(Cl)cc4Cl)O3)cc2)CC1` (racemic) [Ketoconazole], the CC50 (Tox21_110001=Tox21_300267) came out at 23.7 µM.

As to `Cc1c2oc3c(C)ccc(C(=O)N[C@@H]4C(=O)N[C@H](C(C)C)C(=O)N5CCC[C@H]5C(=O)N(C)CC(=O)N(C)[C@@H](C(C)C)C(=O)O[C@@H]4C)c3nc-2c(C(=O)N[C@@H]2C(=O)N[C@H](C(C)C)C(=O)N3CCC[C@H]3C(=O)N(C)CC(=O)N(C)[C@@H](C(C)C)C(=O)O[C@@H]2C)c(N)c1=O` [Actinomycin D] (I: T[dV]P[Sar][NMeV] / II: T[dV]P[Sar][NMeV]; ester I:1-I:C, II:1-II:C; linker I:N-II:N via Actinocin(9to1)), the CC50 (Tox21_110001=Tox21_111997) was 0.00788 µM and the CC50 (Tox21_110001=Tox21_202482) came out at 0.000903 µM.

Turning to `CSc1ccc2c(c1)N(CCC1CCCCN1C)c1ccccc1S2` (stereo not shown) [Thioridazine], the CC50 (Tox21_110001=Tox21_110294) is 6.53 µM.

`CC[C@]1(O)C[C@@H]2CN(CCc3c([nH]c4ccccc34)[C@@](C(=O)OC)(c3cc4c(cc3OC)N(C)[C@H]3[C@@](O)(C(=O)OC)[C@H](OC(C)=O)[C@]5(CC)C=CCN6CC[C@]43[C@@H]65)C2)C1` [Vinblastine sulfate]: the CC50 was 0.185 µM (Tox21_110001=Tox21_111498) and 2.29 µM (Tox21_110001=Tox21_112735).

As to `NNc1nncc2ccccc12` [Hydralazine hydrochloride], the CC50 (Tox21_110001=Tox21_302496) turned out to be 73.4 µM.

Turning to `C[C@H](Cc1ccc(O)c(O)c1)[C@@H](C)Cc1ccc(O)c(O)c1` [Masoprocol], the CC50 (Tox21_110001=Tox21_110210) came out at 9.04 µM.

In the case of `CN(C)c1ccc2nc3ccc(=[N+](C)C)cc-3sc2c1` [Methylene blue], the CC50 runs as follows: (Tox21_110001=Tox21_112497) 21.1 µM; (Tox21_110001=Tox21_302087) 45.4 µM.

Take `CC/C(=C(\c1ccc(O)cc1)c1ccc(OCCN(C)C)cc1)c1ccccc1` [4-Hydroxytamoxifen]: the CC50 (Tox21_110001=Tox21_303657) turned out to be 2.62 µM.

Turning to `CCOc1ccc2c(c1)C(C)=CC(C)(C)N2` [Ethoxyquin], the CC50 (Tox21_110001=Tox21_110388) came out at 39.8 µM.

Turning to `N#Cc1c(Cl)c(Cl)c(Cl)c(C#N)c1Cl` [Chlorothalonil], the CC50 stood at 0.523 µM (Tox21_110001=Tox21_201687) and 0.188 µM (Tox21_110001=Tox21_300862).

Turning to `O=C1Cc2cc(CCN3CCN(c4nsc5ccccc45)CC3)c(Cl)cc2N1` [Ziprasidone], the CC50 (Tox21_110001=Tox21_113525) stood at 15.3 µM.

Regarding `C=C(C)[C@H]1Cc2c(ccc3c2O[C@@H]2COc4cc(OC)c(OC)cc4[C@@H]2C3=O)O1` [Rotenone], the CC50 turned out to be 3.27 µM (Tox21_110001=Tox21_110819), 15.5 µM (Tox21_110001=Tox21_201904) and 5.41 µM (Tox21_110001=Tox21_300695).

Take `O=C(CCl)c1ccc(Cl)cc1Cl` [2,2',4'-Trichloroacetophenone]: the CC50 is 2.14 µM (Tox21_110001=Tox21_113246) and 4.54 µM (Tox21_110001=Tox21_113461).

For the molecule `NC(=O)c1ncn([C@@H]2O[C@H](CO)[C@@H](O)[C@H]2O)n1` [Ribavirin], the CC50 (Tox21_110001=Tox21_110259) came to 40.1 µM.

Regarding `CCCCCCCCCCCCn1cc[n+](C)c1` [1-Dodecyl-3-methylimidazolium trifluoromethanesulfonate], the CC50 (Tox21_110001=Tox21_202630) turned out to be 3.74 µM.

`Nc1ccc(-c2ccc(N)c(N)c2)cc1N` [3,3'-Diaminobenzidine]: where the note is “Tox21_110001=Tox21_302170”, the CC50 was 93.2 µM.

With `Oc1cc(Cl)ccc1Oc1ccc(Cl)cc1Cl` [Triclosan], the CC50 reads like this: (Tox21_110001=Tox21_111648) 50.4 µM; (Tox21_110001=Tox21_400079) 13.3 µM.

For the molecule `COc1cc2c(c(OC)c1OC)-c1c(cc3c(c1OC)OCO3)C[C@H](C)[C@](C)(O)C2` [Gomisin A], where the note is “Tox21_110001=Tox21_113433”, the CC50 amounted to 22.9 µM.

For the molecule `CC1=CC(=C(c2ccc(N)cc2)c2ccc(N)cc2)C=CC1=N` [C.I. Basic Violet 14], the CC50 (Tox21_110001=Tox21_112288) turned out to be 15.1 µM and the CC50 (Tox21_110001=Tox21_202790) worked out at 5.54 µM.

Take `Cc1cc(C(C)(C)C)c(O)c(C(C)(C)C)c1` [Butylated hydroxytoluene]: the CC50 runs as follows: (Tox21_110001=Tox21_113537) 42.9 µM; (Tox21_110001=Tox21_201093) 76.4 µM.

Turning to `O=[N+]([O-])c1ccc(O)cc1` [Sodium 4-nitrophenolate], the CC50 (Tox21_110001=Tox21_300477) was found to be 44.7 µM.

As for `CC#C[C@]1(O)CC[C@H]2[C@@H]3CCC4=CC(=O)CCC4=C3[C@@H](c3ccc(N(C)C)cc3)C[C@@]21C` [Mifepristone], the CC50 runs as follows: (Tox21_110001=Tox21_110952) 9.81 µM; (Tox21_110001=Tox21_301841) 36.7 µM.

Consider `O=C(O)CS` [Ammonium thioglycolate], for which, where the note is “Tox21_110001=Tox21_202751”, the CC50 came out at 58.7 µM.

`CCCCCCCCCCn1cc[n+](C)c1` [1-Decyl-3-methylimidazolium chloride]: the CC50 (Tox21_110001=Tox21_202623) is 22.3 µM.

On to `O=c1c(O)c(-c2ccc(O)c(O)c2)oc2cc(O)cc(O)c12` [Quercetin], for which the CC50 is 40.5 µM (Tox21_110001=Tox21_202308) and 77.2 µM (Tox21_110001=Tox21_300285).

Consider `COC(=O)[C@H]1[C@H]2C[C@@H]3c4[nH]c5ccccc5c4CCN3C[C@H]2C[C@@H](OC(=O)c2cc(OC)c(OC)c(OC)c2)[C@@H]1OC` [Deserpidine], for which the CC50 runs as follows: (Tox21_110001=Tox21_112646) 1.94 µM; (Tox21_110001=Tox21_113102) 27.7 µM.

In the case of `COc1ccc(CN(CCN(C)C)c2ccccn2)cc1` [Pyrilamine], the CC50 (Tox21_110001=Tox21_200978) stood at 39.2 µM.

Take `CCCCCCCCCCCCCC[P+](CCCCCC)(CCCCCC)CCCCCC` [Trihexyltetradecylphosphonium hexafluorophosphate]: the CC50 (Tox21_110001=Tox21_200750) was found to be 5.33 µM.

For `O=C1OC(c2ccc(O)cc2)(c2ccc(O)cc2)c2ccccc21` [Phenolphthalein], the CC50 came to 16.8 µM (Tox21_110001=Tox21_110838), 25.4 µM (Tox21_110001=Tox21_202219) and 49.8 µM (Tox21_110001=Tox21_300282).

With `CN1CCc2cccc3c2[C@H]1Cc1ccc(O)c(O)c1-3` [Apomorphine], for the setting “Tox21_110001=Tox21_110967”, the CC50 is 27.3 µM.

(Values after PMC6792352, “Limited Chemical Structural Diversity Found to Modulate Thyroid Hormone Receptor in the Tox21 Chemical Library” (Environmental Health Perspectives, 2019).)
